IC50 data for 15 compounds are collected here from patent publication US12414952B2 (Merck Sharp & Dohme LLC, priority 2018, dated 2025).

Molecules are shown by their SMILES.

T1 sequence (P29274 whole entry): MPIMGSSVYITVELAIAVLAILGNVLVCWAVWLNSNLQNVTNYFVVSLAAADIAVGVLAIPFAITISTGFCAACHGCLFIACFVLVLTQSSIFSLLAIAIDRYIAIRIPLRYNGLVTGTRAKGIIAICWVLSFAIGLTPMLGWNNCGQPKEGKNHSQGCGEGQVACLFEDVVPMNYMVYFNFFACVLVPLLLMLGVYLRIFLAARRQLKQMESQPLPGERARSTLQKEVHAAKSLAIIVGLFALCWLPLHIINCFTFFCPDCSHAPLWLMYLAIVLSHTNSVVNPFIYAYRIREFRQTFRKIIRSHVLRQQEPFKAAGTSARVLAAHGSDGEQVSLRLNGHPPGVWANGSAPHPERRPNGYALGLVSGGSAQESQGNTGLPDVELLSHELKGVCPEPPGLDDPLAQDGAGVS
Chain of human A2b adenosine receptor (P29275 whole entry): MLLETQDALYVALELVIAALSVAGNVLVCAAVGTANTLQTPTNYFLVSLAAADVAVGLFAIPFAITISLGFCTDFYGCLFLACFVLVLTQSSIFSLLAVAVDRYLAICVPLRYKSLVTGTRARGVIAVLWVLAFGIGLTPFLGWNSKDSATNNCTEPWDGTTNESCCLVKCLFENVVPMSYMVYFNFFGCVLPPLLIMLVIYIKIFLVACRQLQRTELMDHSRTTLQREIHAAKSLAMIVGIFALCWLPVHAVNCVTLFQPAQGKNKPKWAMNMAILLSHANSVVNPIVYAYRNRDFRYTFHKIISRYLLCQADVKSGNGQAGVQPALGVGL

One assay addresses T1, human A2a adenosine receptor (Homo sapiens (Human), UniProt P29274). As to the kind of experiment: A2a binding affinity using radioligand binding, Method (A). The conditions noted are these: Method (A): [3H]SCH58261 filtration binding. The essentials:
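Membranes from HEK293 or CHO cells expressing human A2a were preincubated with compound for 15–30 min at room temperature. [3H]SCH58261 was then added (4 nM working dilution) in 50 mM Tris pH 7.4, 10 mM MgCl2, 0.005% Tween20 for 60 min at room temperature. Bound radioactivity after filtration was normalised to total and non-specific binding, and IC50 came from 4-parameter logistic fits.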
As a reminder, the IC50 is the point on the concentration scale where inhibition reaches its midpoint. High values mean weaker potency, low ones greater potency. The compound `Nc1nc(-c2cc(F)ccc2F)c(C2CC2)n2nc(Cc3ccccc3)nc12` [Example 20.5, 2-benzyl-5-cyclopropyl-6-(2,5-difluorophenyl)-[1,2,4]triazolo[1,5-a]pyrazin-8-amine] yielded an IC50 of 13.5 nM.
On the same count and under the same terms, next, `CC(C)n1nnc2c1CCN(CCc1nc3c(C(F)(F)F)c(-c4cccc(F)c4)nc(N)n3n1)C2` [Example 23.7, 7-(3-fluorophenyl)-2-(2-(1-isopropyl-1,4,6,7-tetrahydro-5H-[1,2,3]triazolo[4,5-c]pyridin-5-yl)ethyl)-8-(trifluoromethyl)-[1,2,4]triazolo[1,5-c]pyrimidin-5-amine]: 0.9 nM.

Another assay has as its target T1, human A2a adenosine receptor. As to the kind of experiment: A2a binding affinity using SPA, Method (B). The settings on record: Method (B): [3H]SCH58261 SPA. From the text: (§1) The A2a receptor affinity binding assay measured the amount of binding of a tritiated ligand with high affinity for the A2a adenosine receptor to membranes made from HEK293 or CHO cells recombinantly expressing the human A2a adenosine receptor, in the presence of varying concentrations of a compound of the invention. The data were generated using either filtration binding or a homogenous scintillation proximity assay (SPA).
Method (B): Measurement of A2a Binding Affinity Using SPA
Binding affinity using SPA was conducted as follows. Test compounds (50 nL) were dispensed into individual wells of a 384-well OptiPlate™ well (Perkin Elmer) by Echo® acoustic liquid transfer (Labcyte). 20 μL of 1.25 nM [^3H] SCH58261 ((7-(2-phenylethyl)-5-amino-2-(2-furyl)-pyrazolo-[4,3-e]-1,2,4-triazolo[1,5-c]pyrimidine)) in DPBS assay buffer (Dulbecco's phosphate buffered saline without calcium and magnesium, ThermoFisher Scientific, Cat. No. A1285601) supplemented with 10 mM MgCl2 was added. A2a receptor-expressing membranes were incubated with 20 μg/mL adenosine deaminase (Roche, Cat. No. 10 102 105 001) for 15 min at room temperature. The receptor-expressing membranes were then combined with wheat germ agglutinin-coated yttrium silicate SPA beads (GE Healthcare, Cat. No. RPNQ0023) in a ratio of 1:1000 (w/w) and incubated for 30 min at room temperature. 30 μL of the membrane/bead mixture (0.25 μg and 25 μg per well respectively) were added to the 384-well OptiPlate™ well. To define total and non-specific binding, wells containing 1% DMSO or 1 μM CGS15943 (Tocris Bioscience, Cat. No. 1699) respectively were also included in the experiment. The plate was incubated for one h at room temperature with agitation. The assay plate was then incubated for an h to allow the beads to settle before data were collected using a TopCount® (Perkin Elmer) scintillation counter. After normalization to total and non-specific binding, the percent effect at each compound concentration was calculated. The plot of percent effect versus the log of compound concentration was analyzed electronically using a 4-parameter logistic fit based on the Levenberg-Marquardt algorithm to generate IC50 values.
`Cc1nc2c(s1)CN(CCc1nc3c(C)c(-c4ncco4)nc(N)n3n1)CC2` [Example 1.8] displayed an IC50 of 2.4 nM.
Consider `Cc1nc2c(s1)CN(CCc1nc3c(C)c(-c4cnco4)nc(N)n3n1)CC2` [Example 2.26], for which the concentration for half-maximal inhibition (IC50) amounted to 6.6 nM. Against the preceding compound, the IC50 is about 2.8-fold higher.
In turn, `Cc1c(-c2ncco2)nc(N)n2nc(Cc3cc[nH]n3)nc12` [Example 7.5, 2-((1H-pyrazol-3-yl)methyl)-8-methyl-7-(oxazol-2-yl)-[1,2,4]triazolo[1,5-c]pyrimidin-5-amine] registered a concentration for half-maximal inhibition (IC50) of 4.7 nM. The IC50 values of the last two compounds are within 1.5-fold of each other.
`Cc1c(-c2ncco2)nc(N)n2nc(Cc3ccccn3)nc12` [Example 9.6, 8-methyl-7-(oxazol-2-yl)-2-(pyridin-2-ylmethyl)-[1,2,4]triazolo[1,5-c]pyrimidin-5-amine]: the IC50 stood at 0.7 nM.
`Cc1cccc(Cc2nc3c(C)c(-c4ncco4)nc(N)n3n2)n1` [Example 9.7, 8-methyl-2-((6-methylpyridin-2-yl)methyl)-7-(oxazol-2-yl)-[1,2,4]triazolo[1,5-c]pyrimidin-5-amine] displayed an IC50 of 0.5 nM.
`Cc1cccnc1Cc1nc2c(C)c(-c3ncco3)nc(N)n2n1` [Example 9.8, 8-methyl-2-((3-methylpyridin-2-yl)methyl)-7-(oxazol-2-yl)-[1,2,4]triazolo[1,5-c]pyrimidin-5-amine] gave an IC50 of 0.6 nM.

Another assay shares this target. The experiment in a line: A2a binding affinity using an alternative radioligand binding assay, Method (C). The settings on record: Method (C): [3H]CGS21680, CHO.A2a membranes.
From the text: as §1
Method (C): Measurement of A2a Binding Affinity Using an Alternative Radioligand Binding Assay
Membranes used in this procedure were made by washing cell cultures twice with DPBS buffer (Dulbecco's phosphate buffered saline without calcium and magnesium, ThermoFisher Scientific, Cat. No. A1285601), and harvesting the cell cultures by mechanical scraping. The cells were collected by centrifugation and re-suspended in 10 mM HEPES, pH 7.4 containing 0.1 mM benzamidine (Sigma, Cat. No. B6506) and 0.1 mM PMSF (phenylmethylsulfonyl fluoride, Sigma, Cat. No. 10837091001). Cells were freeze-thawed twice in a dry ice/ethanol bath and homogenized with 25 to 30 strokes in a glass dounce homogenizer (Wheaton, Cat. No. 357546). Membranes were pelleted at 40,000×g for 20 min at 4° C. and re-suspended in assay buffer (5 mM HEPES, pH 7.4, 5 mM MgCl2; supplemented with 0.1 mM benzamidine) at a protein concentration of 2.6 mg/mL. Protein concentration was determined by the Bio-Rad method (Bio-Rad, Cat. No. 5000002). Membranes were then incubated with adenosine deaminase (final concentration 2U/mL) for 20 min at 37° C. before use in the binding assay.
To perform the binding assay, 50 μg CHO.A2a membranes, 5 nM [^3H]CGS21680 (Perkin Elmer, Cat. No. NET1021), and 1 μL of test compound were combined in individual tubes to a volume of 100 μL. To define total and non-specific binding, wells containing 1% DMSO and 20 μM N-ethylcarboxamidoadenosine (Tocris Bioscience, Cat. No. 1691) respectively, were also included. The samples were incubated for 2 h at 37° C. The samples were filtered rapidly through a glass fiber filter using a cell harvester and washed with cold buffer (10 mM Tris, pH7.4, 5 mM MgCl2). The filter was allowed to dry and individual filters were placed into vials together with liquid scintillant and subjected to scintillation counting. After normalization to total and non-specific binding, the percent effect at each compound concentration was calculated. The plot of percent effect versus the log of compound concentration was analyzed electronically using a 4-parameter logistic fit based on the Levenberg-Marquardt algorithm to generate IC50 values.
Regarding `COc1ccccc1-c1cc2nc(CCN3CC(F)(F)C3)nn2c(N)n1` [Example 2.18], the half-maximal inhibitory concentration (IC50) worked out at 668 nM.
Same read-out and setting: next, `COc1cccc(-c2cc3nc(CCN4CC(F)(F)C4)nn3c(N)n2)c1` [Example 2.19]: 389 nM; `Nc1nc(-c2ccccc2F)cc2nc(CCN3CC(F)(F)C3)nn12` [Example 2.20]: 241 nM; `Nc1nc(-c2cccc(F)c2)cc2nc(CCN3CC(F)(F)C3)nn12` [Example 2.21]: 91.7 nM.
In turn, `Nc1nc(-c2ccc(F)cc2)cc2nc(CCN3CC(F)(F)C3)nn12` [Example 2.22] showed an IC50 of 275 nM.
Take `Nc1nc(-c2ccccc2)cc2nc(CCN3CC(F)(F)C3)nn12` [Example 2.23]: the half-inhibitory concentration (IC50) was determined as 150 nM. Compared with the last compound, the IC50 is about 1.8-fold lower.

Another assay has as its target human A2b adenosine receptor (Homo sapiens (Human), UniProt P29275). As to the kind of experiment: A2b binding affinity, radioligand filtration binding assay. The conditions noted are these: tritiated proprietary A2b antagonist, HEK293 membranes. A digest of the protocol: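 Membranes from HEK293 cells recombinantly expressing human A2b were incubated with a tritiated proprietary A2b antagonist, with and without compound. Filter-bound radioactivity was counted by scintillation. Percent effect was normalized to total and non-specific binding, and IC50 came from a 4-parameter logistic fit.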
The compound `Nc1nc(-c2cc(F)ccc2F)c(C2CC2)n2nc(Cc3ccccc3)nc12` [Example 20.5, 2-benzyl-5-cyclopropyl-6-(2,5-difluorophenyl)-[1,2,4]triazolo[1,5-a]pyrazin-8-amine] came in with a half-maximal inhibitory concentration (IC50) of 117 nM.
For `CC(C)n1nnc2c1CCN(CCc1nc3c(C(F)(F)F)c(-c4cccc(F)c4)nc(N)n3n1)C2` [Example 23.7, 7-(3-fluorophenyl)-2-(2-(1-isopropyl-1,4,6,7-tetrahydro-5H-[1,2,3]triazolo[4,5-c]pyridin-5-yl)ethyl)-8-(trifluoromethyl)-[1,2,4]triazolo[1,5-c]pyrimidin-5-amine], the IC50 was determined as 52.8 nM.

The next assay has as its target T1, human A2a adenosine receptor. As to the kind of experiment: A2a receptor affinity binding assay, method not indicated. The settings on record: method letter not given.
From the text: Method (A) describes the procedure used to measure A2a binding affinity using radioligand binding. Method (B) describes the procedure used to measure A2a binding affinity using SPA technology. Method (C) describes an alternative procedure used to measure A2a binding affinity using radioligand binding. The method used to measure A2b binding affinity is also described below. The method used to determine the A2a IC50 value reported for each compound in the table is indicated next to the reported value. The A2b IC50 value measured using the A2b binding affinity assay is shown in the table next to the compound under the corresponding A2a value.
as §1
Compound `Cc1c(-c2ccc(F)cc2)nc(N)c2nc(CCN3CCn4c(cnc4C(C)C)C3)nn12` [Example 18.6, 6-(4-fluorophenyl)-2-(2-(3-isopropyl-5,6-dihydroimidazo[1,5-a]pyrazin-7(8H)-yl)ethyl)-5-methyl-[1,2,4] triazolo[1,5-a]pyrazin-8-amine] came in with an IC50 of 346 nM.
